US11708348B2, “Protease inhibitors for treatment of coronavirus infections” (The Scripps Research Institute, priority 2021, dated 2023)
Like-named read-outs stand apart in the source and are kept apart here.

Test system: SARS-CoV-2 strain USA-WA1/2020
Assay: microbe, parasite or virus in culture
Type: cell-based
Conditions: Severe acute respiratory syndrome coronavirus 2, HeLa-ACE2, 24 h, read-out: EC50, uM (Hela)
[1] = HeLa-ACE2 cells, SARS-CoV-2 infection, 24 h, class symbols

Structure (SMILES)	EC50 [1]	other results
O=C1NCC[C@H]1C[C@H](NC(=O)[C@@H]1[C@H]2CCC[C@H]2CN1C(=O)C1OCCC1(F)F)C(=O)COC(F)(F)F (stereo partly drawn) [Compound 323, (1S,3aR,6aS)-2-(3,3-difluorotetrahydrofuran-2-carbonyl)-N-((S)-3-oxo-1-((S)-2-oxopyrrolidin-3-yl)-4-(trifluoromethoxy)butan-2-yl)octahydrocyclo-penta[c]pyrrole-1-carboxamide]	0.05 to 0.2 µM	
CC(C)C[C@H](NC(=O)C1OCCC1(F)F)C(=O)N[C@@H](C[C@@H]1CCNC1=O)C(=O)COC(F)(F)F (stereo partly drawn) [Compound 324, 3,3-difluoro-N-((S)-4-methyl-1-oxo-1-(((S)-3-oxo-1-((S)-2-oxopyrrolidin-3-yl)-4-(trifluoromethoxy)butan-2-yl)amino)pentan-2-yl)tetrahydrofuran-2-carboxamide]	0.05 to 0.2 µM	
O=C1NCC[C@H]1C[C@@H](NC(=O)[C@@H]1C[C@H]2C[C@H]2N1C(=O)[C@@H]1CCCO1)C(=O)COC(F)(F)F [Compound 326, (1R,3S,5R)-N-(3-oxo-1-((S)-2-oxopyrrolidin-3-yl)-4-(trifluoromethoxy)butan-2-yl)-2-((S)-tetrahydrofuran-2-carbonyl)-2-azabicyclo[3.1.0]-hexane-3-carboxamide]		EC50 (HeLa-ACE2 cells, SARS-CoV-2 infection, 24 h, bound printed in cell): > 1 µM
CC(C)(C)NC(=O)O[C@@H](C(=O)N1CC2(CC2)C[C@H]1C(=O)N[C@@H](C[C@@H]1CCNC1=O)C(=O)COC(F)(F)F)C(C)(C)C [Compound 327, (R)-3,3-dimethyl-1-oxo-1-((S)-6-(((S)-3-oxo-1-((S)-2-oxopyrrolidin-3-yl)-4-(trifluoromethoxy)butan-2-yl)carbamoyl)-5-azaspiro[2.4]heptan-5-yl)butan-2-yl tert-butylcarbamate]	0.5 to 1 µM	
CC(C)C[C@@H](OC(=O)NC(C)(C)C)C(=O)N1CC2(CC2)C[C@H]1C(=O)N[C@@H](C[C@@H]1CCNC1=O)C(=O)COC(F)(F)F [Compound 328, (R)-4-methyl-1-oxo-1-((S)-6-(((S)-3-oxo-1-((S)-2-oxopyrrolidin-3-yl)-4-(trifluoromethoxy)butan-2-yl)carbamoyl)-5-azaspiro[2.4]heptan-5-yl)pentan-2-yl tert-butylcarbamate]	< 0.05 µM	
CC(C)C[C@@H](OC(=O)NC(C)C)C(=O)N1CC2(CC2)C[C@H]1C(=O)N[C@@H](C[C@@H]1CCNC1=O)C(=O)COC(F)(F)F [Compound 329, (R)-4-methyl-1-oxo-1-((S)-6-(((S)-3-oxo-l-((S)-2-oxopyrrolidin-3-yl)-4-(trifluoromethoxy)butan-2-yl)carbamoyl)-5-azaspiro[2.4]heptan-5-yl)pentan-2-yl isopropylcarbamate]	< 0.05 µM	
CC(C)C[C@@H](OC(=O)NC1CCCCC1)C(=O)N1CC2(CC2)C[C@H]1C(=O)N[C@@H](C[C@@H]1CCNC1=O)C(=O)COC(F)(F)F [Compound 330, (R)-4-methyl-1-oxo-1-((S)-6-(((S)-3-oxo-l-((S)-2-oxopyrrolidin-3-yl)-4-(trifluoromethoxy)butan-2-yl)carbamoyl)-5-azaspiro[2.4]heptan-5-yl)pentan-2-yl cyclohexylcarbamate]	< 0.05 µM	
CC(C)C[C@@H](OC(=O)Nc1ccccc1)C(=O)N1CC2(CC2)C[C@H]1C(=O)N[C@@H](C[C@@H]1CCNC1=O)C(=O)COC(F)(F)F [Compound 331, (R)-4-methyl-1-oxo-1-((S)-6-(((S)-3-oxo-l-((S)-2-oxopyrrolidin-3-yl)-4-(trifluoromethoxy)butan-2-yl)carbamoyl)-5-azaspiro[2.4]heptan-5-yl)pentan-2-yl phenylcarbamate]	< 0.05 µM	
CCNC(=O)O[C@@H](C(=O)N1CC2(CC2)C[C@H]1C(=O)N[C@@H](C[C@@H]1CCNC1=O)C(=O)COC(F)(F)F)C(C)(C)C [Compound 332, (R)-3,3-dimethyl-1-oxo-l-((S)-6-(((S)-3-oxo-1-((S)-2-oxopyrrolidin-3-yl)-4-(trifluoromethoxy)butan-2-yl)carbamoyl)-5-azaspiro[2.4]heptan-5-yl)butan-2-yl ethylcarbamate]		EC50: 0.5 to 1 µM
CC(C)C[C@@H](OC(F)F)C(=O)N1CC2(CC2)C[C@H]1C(=O)N[C@@H](C[C@@H]1CCNC1=O)C(=O)COC(F)(F)F [Compound 333, (S)-5-((R)-2-(difluoromethoxy)-4-methylpentanoyl)-N—((S)-3-oxo-1-((S)-2-oxopyrrolidin-3-yl)-4-(trifluoromethoxy)butan-2-yl)-5-azaspiro[2.4]heptane-6-carboxamide]	< 0.05 µM	
CC(C)C[C@@H](OCC(C)(C)O)C(=O)N1CC2(CC2)C[C@H]1C(=O)N[C@@H](C[C@@H]1CCNC1=O)C(=O)COC(F)(F)F [Compound 334, (S)-5-((R)-2-(2-hydroxy-2-methylpropoxy)-4-methylpentanoyl)-N-((S)-3-oxo-1-((S)-2-oxopyrrolidin-3-yl)-4-(trifluoromethoxy)butan-2-yl)-5-azaspiro[2.4]heptane-6-carboxamide]	0.05 to 0.2 µM	
CC[C@@H](OC(F)(F)F)C(=O)N1C[C@H]2[C@@H]([C@H]1C(=O)N[C@@H](C[C@@H]1CCNC1=O)C(=O)COC(F)(F)F)C2(C)C [Compound 335, (1R,2S,5S)-6,6-dimethyl-N-((S)-3-oxo-1-((S)-2-oxopyrrolidin-3-yl)-4-(trifluoromethoxy)butan-2-yl)-3-((R)-2-(trifluoromethoxy)butanoyl)-3-azabicyclo[3.1.0]-hexane-2-carboxamide]	< 0.05 µM	
CC[C@@H](OC)C(=O)N1C[C@H]2[C@@H]([C@H]1C(=O)N[C@@H](C[C@@H]1CCNC1=O)C(=O)COC(F)(F)F)C2(C)C [Compound 336, (1R,2S,5S)-3-((R)-2-methoxybutanoyl)-6,6-dimethyl-N—((S)-3-oxo-1-((S)-2-oxopyrrolidin-3-yl)-4-(trifluoromethoxy)butan-2-yl)-3-azabicyclo[3.1.0]hexane-2-carboxamide]	0.05 to 0.2 µM	
CC[C@@H](OC)C(=O)N[C@@H](CC(C)C)C(=O)N[C@@H](C[C@@H]1CCNC1=O)C(=O)COC(F)(F)F [Compound 337, (S)-2-((R)-2-methoxybutanamido)-4-methyl-N-((S)-3-oxo-1-((S)-2-oxopyrrolidin-3-yl)-4-(trifluoromethoxy)butan-2-yl)pentanamide]	0.05 to 0.2 µM	
COC(CC(C)C)C(=O)N1CC2(CC2)C[C@H]1C(=O)N[C@@H](C[C@@H]1CCNC1=O)C(=O)COC(F)(F)F (stereo partly drawn) [Compound 338, (6S)-5-(2-methoxy-4-methylpentanoyl)-N-((S)-3-oxo-1-((S)-2-oxopyrrolidin-3-yl)-4-(trifluoromethoxy)butan-2-yl)-5-azaspiro[2.4]heptane-6-carboxamide]	< 0.05 µM	
CO[C@@H](CC(C)C)C(=O)N1CC2(CC2)C[C@H]1C(=O)N[C@@H](C[C@@H]1CCNC1=O)C(=O)COC(F)(F)F [Compound 339, (S)-5-((S)-2-methoxy-4-methylpentanoyl)-N-((S)-3-oxo-1-((S)-2-oxopyrrolidin-3-yl)-4-(trifluoromethoxy)butan-2-yl)-5-azaspiro[2.4]heptane-6-carboxamide]	0.05 to 0.2 µM	
COC(OC)C(=O)N1CC2(CC2)C[C@H]1C(=O)N[C@@H](C[C@@H]1CCNC1=O)C(=O)COC(F)(F)F [Compound 340, (S)-5-(2,2-dimethoxyacetyl)-N—((S)-3-oxo-1-((S)-2-oxopyrrolidin-3-yl)-4-(trifluoromethoxy)butan-2-yl)-5-azaspiro[2.4]heptane-6-carboxamide]	0.2 to 0.5 µM	
CC(C)C[C@H](NC(=O)[C@H](O)C(C)(C)C)C(=O)N[C@@H](C[C@@H]1CCNC1=O)C(=O)COC(F)(F)F [Compound 341, (S)-2-((R)-2-hydroxy-3,3-dimethylbutanamido)-4-methyl-N-((S)-3-oxo-1-((S)-2-oxopyrrolidin-3-yl)-4-(trifluoromethoxy)butan-2-yl)pentanamide]	0.05 to 0.2 µM	
CC(C)(C)[C@@H](O)C(=O)N1CC2(CC2)C[C@H]1C(=O)N[C@@H](C[C@@H]1CCNC1=O)C(=O)COC(F)(F)F [Compound 342, (S)-5-((R)-2-hydroxy-3,3-dimethylbutanoyl)-N-((S)-3-oxo-1-((S)-2-oxopyrrolidin-3-yl)-4-(trifluoromethoxy)butan-2-yl)-5-azaspiro[2.4]heptane-6-carboxamide]	0.05 to 0.2 µM	
CC(C)(C)[C@@H](O)C(=O)N1C[C@H]2[C@@H]([C@H]1C(=O)N[C@@H](C[C@@H]1CCNC1=O)C(=O)COC(F)(F)F)C2(C)C [Compound 343, (1R,2S,5S)-3-((R)-2-hydroxy-3,3-dimethylbutanoyl)-6,6-dimethyl-N-((S)-3-oxo-1-((S)-2-oxopyrrolidin-3-yl)-4-(trifluoromethoxy)butan-2-yl)-3-azabicyclo[3.1.0]-hexane-2-carboxamide]	0.05 to 0.2 µM	
CC(C)(C)[C@H](O)C(=O)N1CC2(CC2)C[C@H]1C(=O)N[C@@H](C[C@@H]1CCNC1=O)C(=O)COC(F)(F)F [Compound 344, (S)-5-((S)-2-hydroxy-3,3-dimethylbutanoyl)-N-((S)-3-oxo-1-((S)-2-oxopyrrolidin-3-yl)-4-(trifluoromethoxy)butan-2-yl)-5-azaspiro[2.4]heptane-6-carboxamide]	< 0.05 µM	
CC(C)(C)[C@H](O)C(=O)N1C[C@H]2[C@@H]([C@H]1C(=O)N[C@@H](C[C@@H]1CCNC1=O)C(=O)COC(F)(F)F)C2(C)C [Compound 345, (1R,2S,5S)-3-((S)-2-hydroxy-3,3-dimethylbutanoyl)-6,6-dimethyl-N-((S)-3-oxo-1-((S)-2-oxopyrrolidin-3-yl)-4-(trifluoromethoxy)butan-2-yl)-3-azabicyclo-[3.1.0]hexane-2-carboxamide]	< 0.05 µM	
CC(C)(C)CC(O)C(=O)N1CC2(CC2)C[C@H]1C(=O)N[C@@H](C[C@@H]1CCNC1=O)C(=O)COC(F)(F)F (stereo partly drawn) [Compound 346, (6S)-5-(2-hydroxy-4,4-dimethylpentanoyl)-N-((S)-3-oxo-1-((S)-2-oxopyrrolidin-3-yl)-4-(trifluoromethoxy)butan-2-yl)-5-azaspiro[2.4]heptane-6-carboxamide]	< 0.05 µM	
